HELM strings list units from the 5' end as sugar, base in round brackets, then linkage (d deoxyribose, r ribose, m 2'-O-methyl, p phosphodiester). Strings are as the collection lists them; they lack the last nucleoside at the 3' end of the tested compound. [moe] = 2'-O-(2-methoxyethyl) (MOE); [sp] = phosphorothioate linkage; [m5C] = 5-methylcytosine
What follows are substances tested against ATXN2 (assay: mouse, dose not given). Settings: ASO.

| Substance | 3 h FOB score [score 0-7] |
| --- | --- |
| RNA1{[moe](A)[sp].[moe](A)p.[moe](A)p.[moe](G)p.[moe](A)p.d([m5C])[sp].d(T)[sp].d(T)[sp].d(T)[sp].d(G)[sp].d(A)[sp].d(A)[sp].d(A)[sp].d(T)[sp].d([m5C])[sp].[moe](T)p.[moe]([m5C])p.[moe](A)[sp].[moe]([m5C])}$$$$ (last 3' nucleoside missing) | 1 |
| RNA1{[moe](A)[sp].[moe](A)p.[moe](G)p.[moe](A)p.[moe](A)p.d(T)[sp].d([m5C])[sp].d([m5C])[sp].d(T)[sp].d(T)[sp].d(A)[sp].d(G)[sp].d([m5C])[sp].d(A)[sp].d([m5C])[sp].[moe](T)p.[moe](T)p.[moe](G)[sp].[moe](G)}$$$$ (last 3' nucleoside missing) | 6.25 |
| RNA1{[moe](A)[sp].[moe](A)p.[moe](G)p.[moe](A)p.[moe](T)p.d(G)[sp].d(G)[sp].d(G)[sp].d(T)[sp].d(T)[sp].d(T)[sp].d(T)[sp].d(T)[sp].d(T)[sp].d(T)[sp].[moe](G)p.[moe]([m5C])p.[moe](T)[sp].[moe](T)}$$$$ (last 3' nucleoside missing) | 4 |
| RNA1{[moe](A)[sp].[moe](A)p.[moe](G)p.[moe](A)p.[moe]([m5C])p.d(T)[sp].d(T)[sp].d(T)[sp].d(T)[sp].d(T)[sp].d(A)[sp].d(T)[sp].d(G)[sp].d(T)[sp].d(T)[sp].[moe](G)p.[moe]([m5C])p.[moe](T)[sp].[moe]([m5C])}$$$$ (last 3' nucleoside missing) | 3.5 |
| RNA1{[moe](A)[sp].[moe](A)p.[moe](G)p.[moe](T)p.[moe](A)p.d(G)[sp].d(T)[sp].d(G)[sp].d(T)[sp].d(T)[sp].d(T)[sp].d(G)[sp].d(G)[sp].d(G)[sp].d(A)[sp].[moe](T)p.[moe](G)p.[moe]([m5C])[sp].[moe](T)}$$$$ (last 3' nucleoside missing) | 6 |
| RNA1{[moe](A)[sp].[moe](A)p.[moe](G)p.[moe](T)p.[moe](T)p.d([m5C])[sp].d([m5C])[sp].d([m5C])[sp].d(A)[sp].d(T)[sp].d(T)[sp].d(G)[sp].d([m5C])[sp].d(A)[sp].d(T)[sp].[moe](T)p.[moe](G)p.[moe](T)[sp].[moe](T)}$$$$ (last 3' nucleoside missing) | 6 |
| RNA1{[moe](A)[sp].[moe](A)p.[moe](G)p.[moe](T)p.[moe]([m5C])p.d(T)[sp].d(T)[sp].d(G)[sp].d(T)[sp].d(T)[sp].d([m5C])[sp].d(A)[sp].d(G)[sp].d(T)[sp].d(G)[sp].[moe](T)p.[moe]([m5C])p.[moe]([m5C])[sp].[moe](T)}$$$$ (last 3' nucleoside missing) | 4.5 |
| RNA1{[moe](A)[sp].[moe](A)p.[moe](G)p.[moe]([m5C])p.[moe](T)p.d(T)[sp].d(A)[sp].d(G)[sp].d(A)[sp].d(G)[sp].d(T)[sp].d(T)[sp].d(T)[sp].d(T)[sp].d(T)[sp].[moe](G)p.[moe]([m5C])p.[moe]([m5C])[sp].[moe](T)}$$$$ (last 3' nucleoside missing) | 4 |
| RNA1{[moe](A)[sp].[moe](A)p.[moe](T)p.[moe](A)p.[moe](G)p.d(G)[sp].d(G)[sp].d(T)[sp].d(T)[sp].d(T)[sp].d(T)[sp].d(G)[sp].d(T)[sp].d(T)[sp].d([m5C])[sp].[moe](A)p.[moe](T)p.[moe](G)[sp].[moe]([m5C])}$$$$ (last 3' nucleoside missing) | 3.75 |
| RNA1{[moe](A)[sp].[moe](A)p.[moe](T)p.[moe](A)p.[moe](T)p.d(T)[sp].d([m5C])[sp].d([m5C])[sp].d(A)[sp].d(T)[sp].d(A)[sp].d([m5C])[sp].d(A)[sp].d(G)[sp].d(A)[sp].[moe](T)p.[moe]([m5C])p.[moe](G)[sp].[moe]([m5C])}$$$$ (last 3' nucleoside missing) | 2.5 |
| RNA1{[moe](A)[sp].[moe](A)p.[moe](T)p.[moe](G)p.[moe]([m5C])p.d([m5C])[sp].d(G)[sp].d(T)[sp].d(T)[sp].d(T)[sp].d(T)[sp].d(T)[sp].d(A)[sp].d([m5C])[sp].d(T)[sp].[moe]([m5C])p.[moe](T)p.[moe]([m5C])[sp].[moe](A)}$$$$ (last 3' nucleoside missing) | 0 |
| RNA1{[moe](A)[sp].[moe](A)p.[moe]([m5C])p.[moe](A)p.[moe](G)p.d([m5C])[sp].d(T)[sp].d([m5C])[sp].d(T)[sp].d(G)[sp].d(T)[sp].d(T)[sp].d([m5C])[sp].d(G)[sp].d(A)[sp].[moe](T)p.[moe](G)p.[moe]([m5C])[sp].[moe](A)}$$$$ (last 3' nucleoside missing) | 6 |
| RNA1{[moe](A)[sp].[moe](A)p.[moe]([m5C])p.[moe](G)p.[moe](A)p.d(T)[sp].d(G)[sp].d(A)[sp].d(T)[sp].d([m5C])[sp].d(T)[sp].d(G)[sp].d(G)[sp].d(T)[sp].d(A)[sp].[moe](T)p.[moe]([m5C])p.[moe]([m5C])[sp].[moe](T)}$$$$ (last 3' nucleoside missing) | 7 |
| RNA1{[moe](A)[sp].[moe](A)p.[moe]([m5C])p.[moe](G)p.[moe](G)p.d(A)[sp].d(G)[sp].d(T)[sp].d([m5C])[sp].d(A)[sp].d([m5C])[sp].d(T)[sp].d(G)[sp].d(T)[sp].d(T)[sp].[moe](T)p.[moe](T)p.[moe](T)[sp].[moe]([m5C])}$$$$ (last 3' nucleoside missing) | 5.5 |
| RNA1{[moe](A)[sp].[moe](A)p.[moe]([m5C])p.[moe](T)p.[moe](G)p.d(G)[sp].d(A)[sp].d(T)[sp].d(T)[sp].d([m5C])[sp].d(T)[sp].d(G)[sp].d(T)[sp].d(A)[sp].d([m5C])[sp].[moe](T)p.[moe](T)p.[moe](T)[sp].[moe](T)}$$$$ (last 3' nucleoside missing) | 4.75 |
| RNA1{[moe](A)[sp].[moe](A)p.[moe]([m5C])p.[moe]([m5C])p.[moe](A)p.d(T)[sp].d(G)[sp].d([m5C])[sp].d([m5C])[sp].d(T)[sp].d([m5C])[sp].d(T)[sp].d(T)[sp].d(T)[sp].d(T)[sp].[moe](T)p.[moe](T)p.[moe]([m5C])[sp].[moe](T)}$$$$ (last 3' nucleoside missing) | 0 |
| RNA1{[moe](A)[sp].[moe](A)p.[moe]([m5C])p.[moe]([m5C])p.[moe](A)p.d([m5C])[sp].d(T)[sp].d(G)[sp].d(A)[sp].d(T)[sp].d(T)[sp].d(T)[sp].d(A)[sp].d(T)[sp].d(A)[sp].[moe]([m5C])p.[moe](A)p.[moe]([m5C])[sp].[moe](T)}$$$$ (last 3' nucleoside missing) | 2.5 |
| RNA1{[moe](A)[sp].[moe](G)p.[moe](A)p.[moe](G)p.[moe](T)p.d(T)[sp].d(T)[sp].d(T)[sp].d(T)[sp].d(G)[sp].d([m5C])[sp].d([m5C])[sp].d(T)[sp].d(T)[sp].d([m5C])[sp].[moe]([m5C])p.[moe](A)p.[moe](T)[sp].[moe](T)}$$$$ (last 3' nucleoside missing) | 3 |
| RNA1{[moe](A)[sp].[moe](G)p.[moe](G)p.[moe](G)p.[moe](T)p.d(T)[sp].d(A)[sp].d(A)[sp].d(T)[sp].d(T)[sp].d(A)[sp].d(G)[sp].d(G)[sp].d(A)[sp].d(T)[sp].[moe]([m5C])p.[moe](T)p.[moe](A)[sp].[moe](T)}$$$$ (last 3' nucleoside missing) | 6 |
| RNA1{[moe](A)[sp].[moe](G)p.[moe](G)p.[moe](T)p.[moe](G)p.d(A)[sp].d(T)[sp].d(G)[sp].d(T)[sp].d(T)[sp].d(T)[sp].d([m5C])[sp].d(A)[sp].d(T)[sp].d(T)[sp].[moe](G)p.[moe](G)p.[moe](G)[sp].[moe](T)}$$$$ (last 3' nucleoside missing) | 4.5 |
| RNA1{[moe](A)[sp].[moe](G)p.[moe](G)p.[moe]([m5C])p.[moe](A)p.d(T)[sp].d(A)[sp].d(A)[sp].d(A)[sp].d(T)[sp].d(T)[sp].d(T)[sp].d([m5C])[sp].d(A)[sp].d(T)[sp].[moe]([m5C])p.[moe](T)p.[moe](T)[sp].[moe](A)}$$$$ (last 3' nucleoside missing) | 0 |
| RNA1{[moe](A)[sp].[moe](G)p.[moe](T)p.[moe](A)p.[moe](A)p.d(A)[sp].d(A)[sp].d(G)[sp].d(T)[sp].d(T)[sp].d(T)[sp].d(T)[sp].d(T)[sp].d([m5C])[sp].d([m5C])[sp].[moe]([m5C])p.[moe](T)p.[moe](T)[sp].[moe](A)}$$$$ (last 3' nucleoside missing) | 3.25 |
| RNA1{[moe](A)[sp].[moe](G)p.[moe](T)p.[moe](A)p.[moe](T)p.d([m5C])[sp].d(T)[sp].d([m5C])[sp].d(A)[sp].d(G)[sp].d(T)[sp].d(T)[sp].d(T)[sp].d(T)[sp].d(T)[sp].[moe](T)p.[moe](T)p.[moe](T)[sp].[moe](T)}$$$$ (last 3' nucleoside missing) | 2 |
| RNA1{[moe](A)[sp].[moe](G)p.[moe](T)p.[moe](G)p.[moe](T)p.d(T)[sp].d(T)[sp].d(G)[sp].d(G)[sp].d(G)[sp].d(A)[sp].d(T)[sp].d(G)[sp].d([m5C])[sp].d(T)[sp].[moe](T)p.[moe]([m5C])p.[moe](A)[sp].[moe](G)}$$$$ (last 3' nucleoside missing) | 6.5 |
| RNA1{[moe](A)[sp].[moe](G)p.[moe](T)p.[moe](T)p.[moe]([m5C])p.d(A)[sp].d([m5C])[sp].d([m5C])[sp].d(T)[sp].d(G)[sp].d([m5C])[sp].d(A)[sp].d(T)[sp].d([m5C])[sp].d([m5C])[sp].[moe]([m5C])p.[moe](A)p.[moe](G)[sp].[moe](G)}$$$$ (last 3' nucleoside missing) | 5.5 |
| RNA1{[moe](A)[sp].[moe](G)p.[moe](T)p.[moe]([m5C])p.[moe](A)p.d(T)[sp].d(G)[sp].d([m5C])[sp].d(T)[sp].d(T)[sp].d(A)[sp].d(T)[sp].d(A)[sp].d(A)[sp].d(A)[sp].[moe](G)p.[moe](T)p.[moe]([m5C])[sp].[moe]([m5C])}$$$$ (last 3' nucleoside missing) | 3.5 |
| RNA1{[moe](A)[sp].[moe](G)p.[moe](T)p.[moe]([m5C])p.[moe](T)p.d(T)[sp].d(G)[sp].d(T)[sp].d(T)[sp].d([m5C])[sp].d(A)[sp].d(G)[sp].d(T)[sp].d(G)[sp].d(T)[sp].[moe]([m5C])p.[moe]([m5C])p.[moe](T)[sp].[moe](T)}$$$$ (last 3' nucleoside missing) | 5 |

Source: the OligoGym collection
